Entries after “also recorded” stand apart in the source; their conditions may differ. Peptide text beside a SMILES is read from it.
Key:
TEM8 = TEM8 (Homo sapiens, UniProt Q9H6X2); type: binding; settings: 250nM mCitrine-TEM8, 325nM PA-546; S16 313 nM to 40 μM
CMG2 = CMG2 (Homo sapiens, UniProt P58335, C175A/R40C); assay: biochemical; type: binding; settings: for koff: read-out: off-rate / koff (BLI)
EOMA cells [1] = type: cell-based, murine; settings: n=3
EA.hy926 cells = type: cell-based, human
EOMA cells [2] = type: cell-based, murine

Chain of CMG2 (P58335 40-217 R40C/C175A limits assumed): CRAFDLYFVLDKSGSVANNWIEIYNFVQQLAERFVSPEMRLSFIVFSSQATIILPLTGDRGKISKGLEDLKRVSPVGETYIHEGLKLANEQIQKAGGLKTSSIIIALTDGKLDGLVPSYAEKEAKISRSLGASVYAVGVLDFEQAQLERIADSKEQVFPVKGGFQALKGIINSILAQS
Chain of TEM8 (Q9H6X2 44-215 limits assumed): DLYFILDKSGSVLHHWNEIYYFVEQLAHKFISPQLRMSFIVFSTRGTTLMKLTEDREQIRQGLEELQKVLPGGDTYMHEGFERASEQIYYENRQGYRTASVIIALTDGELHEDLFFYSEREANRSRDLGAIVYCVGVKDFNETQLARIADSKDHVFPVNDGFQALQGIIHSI

| Compound | inhibition of TEM8-PA FRET (TEM8) | S16 binding to CMG2 in EDTA (BLI) (CMG2; 10 mM EDTA instead of 2 mM CaCl2 and 1 mM MgCl2, 10 µM S16, n=3) | on-rate (BLI) (CMG2; 1:1 model) | binding on BLI of S16 prepared to encourage monomerization (CMG2; S16 prepared in a fashion that encourages monomerization) | koff (CMG2) [s⁻¹] | S16 binding to CMG2 sensors treated with PA before S16 (BLI) (CMG2; sensors equilibrated with 500 nM PA, then 10 µM S16, n=3) | reduction in wound closure (EOMA cells [1]) [%] | reduction of migration toward serum (EA.hy926 cells) | proliferation relative to untreated control (EOMA cells [2]) | kon (BLI) (CMG2; representative fit) [M/s] | binding of CMG2 (BLI), in words (CMG2; concentrations up to 30 μM, 3 independent experiments, no binding model fits) | directional migration versus vehicle (EA.hy926 cells) |
| --- | --- | --- | --- | --- | --- | --- | --- | --- | --- | --- | --- | --- |
| CC[C@H](C)[C@H](NC(=O)[C@H](C)NC(=O)[C@@H](NC(=O)[C@H](C)NC(=O)[C@@H]1CCCN1)[C@@H](C)CC)C(=O)N[C@@H](C)C(=O)N[C@H](C(=O)N[C@@H](Cc1c[nH]cn1)C(=O)N[C@@H](CO)C(=O)N[C@@H](CCC(N)=O)C(=O)N[C@@H](CC(=O)O)C(=O)N[C@H](C(=O)N[C@@H](CO)C(=O)N[C@H](C(=O)N1CCC[C@H]1C(=O)O)[C@@H](C)CC)C(C)C)C(C)C [Peptide S16] (H-PAIAIAVHSQDVSIP-OH; N-terminus and C-terminus assumed) | negligible; also recorded: unable to compete | prevents S16 binding | ≈ 2 × 10^2 M^−1s^−1 | binding is not observed | ~0.0001 | reduced | 60 | ~ 90% | no change in proliferation |  |  |  |
| CC[C@H](C)[C@H](NC(=O)[C@H](CO)NC(=O)[C@@H](N)C(C)C)C(=O)NCC(=O)N[C@@H](Cc1ccc(O)cc1)C(=O)N[C@@H](CC(C)C)C(=O)N[C@@H](CC(C)C)C(=O)N[C@H](C(=O)N[C@@H](CCCCN)C(=O)N[C@@H](Cc1c[nH]cn1)C(=O)N[C@@H](CO)C(=O)N[C@@H](CCC(N)=O)C(=O)N[C@H](C(=O)N[C@@H](CC(=O)O)C(=O)N[C@@H](CCC(N)=O)C(=O)O)[C@@H](C)O)C(C)C [Peptide U12] (H-VSIGYLLVKHSQTDQ-OH; N-terminus and C-terminus assumed) |  |  |  |  | 0.0125 ± 0.0002 |  |  |  |  | 150 ± 10 |  |  |
| SPIAVDVQSAPIHAI [scrambled S16, reference compound] |  |  |  |  |  |  |  |  |  |  | minimal binding | no significant difference |

From paper doi:10.1101/705459v3 (bioRxiv, 2019)
